In patent publication US12545677B2, “Compounds useful as factor XIa inhibitors” (JANSSEN PHARMACEUTICA NV, priority 2020, dated 2026):

Tests used:
[1] = system: mitochondrial respiration in HepG2 cells; assay: Seahorse assay, mitochondrial respiration; assay type: cell-based; settings: Homo sapiens, 0.3-100 μM, read-out: IC50, mitochondrial respiration as measured by spare respiratory capacity
Procedure: Biological Example 11: Seahorse Assay
The purpose of this assay was to investigate the effect of the compound of formula (I-A) on mitochondrial respiration in HepG2 cells using the Agilent Seahorse XFe96 analyzer. Cell viability was also determined in HepG2 cells in parallel to the Seahorse assay.
Measurement of mitochondrial respiration in HepG2 Cells: Compound doses were prepared in 100% DMSO and subsequently diluted in assay medium to achieve final solvent concentration of 0.10%. HepG2 cells were plated overnight in a Seahorse plate (Agilent Technologies, Santa Clara, California) at a density of 40,000 cells/well in EMEM containing 10% HI FBS and 1× Pen/Strep cell culture. […] Mitochondrial respiration, quantitated as oxygen consumption rate (OCR), was measured on an Agilent Seahorse XFe96 analyzer using the Seahorse Mito Stress test assay as per the manufacturer's protocol. […]
Data Analyses: Mitochondrial SRC (spare respiratory capacity) was calculated by subtracting the rate of the basal respiration from the rate of the maximal respiration. […] All experiments were run in triplicate and the mean and standard deviations were calculated for each test concentration. […]
IC50 values were determined by nonlinear regression and fitting of the dose response curves to a […] equation with variable slope (Hill coefficient): […]

human hepatocytes = assay: In vitro metabolism in human cryopreserved hepatocytes; assay type: in vitro ADME
Procedure: In Vitro Metabolism of in Human Cryopreserved Hepatocytes
The human hepatocytes used for in vitro metabolism of the compound of formula (I-A) were purchased from Bioreclamation IVT (Westbury, NY); cryopreserved human hepatocytes (lot number: UYG).
Cryopreserved hepatocytes were rapidly thawed […] vials were placed in a 37° C. water bath for approximately 90 sec, then immediately added to pre-warmed hepatocyte thawing media. The cells were resuspended within the media and then centrifuged at 700×g for 7 minutes at room temperature.
The supernatant was discarded, and the cells were resuspended in 2 mL of Krebs-Henseleit buffer containing 12.5 mM HEPES pH 7.4 (KHB). Cell viability and yield were determined by Trypan Blue exclusion. The hepatocytes were then diluted in KHB to a cell concentration of 2×10^6 cells/mL (500 μL/well in 10 mL glass tubes). The tubes were placed on a rotary shaker in a humidifier incubator supplied with 5% CO2 and allowed 15 minutes acclimation at 37° C. prior to use. The compound of formula (I-A) or positive control, diclofenac (10 μM), in KHB was then added to the hepatocytes to achieve a final concentration of 10 μM and cell concentration of 1×10^6 cells/mL (1000 μL final incubation volume). Cells were incubated for zero or 3 hours. At the end of the incubation period, the cells were quenched with 6-volumes of ice-cold acetonitrile containing 0.02% formic acid, vortexed and sonicated (5 min). Precipitated proteins were pelleted by centrifugation (3000 rpm, 10 minutes, 4° C.) and the supernatant was transferred to borosilicate tubes and evaporated to dryness under a gentle stream of nitrogen.
The resulting residue after evaporation was reconstituted in 250 μL of water:acetonitrile (9:1 v/v) containing 0.01% formic acid with sonication and vortexing to aid solubilization of drug-derived materials prior to filtration using 0.45μ nylon filter at 10,000×g at room temperature for 10 minutes. The filtrate was transferred to a 96-well plate for liquid chromatography/ultraviolet/mass spectrometry (LC-UV/MS) analysis.
LC/UV/MS (Liquid Chromatography/Ultraviolet/Mass Spectrometry)
LTQ/Orbitrap (Thermo Scientific, Inc., Bremen, Germany) was carried out by data-dependent accurate mass measurements at resolving powers of 15,000 for full scan MS and 7,500 for MS^2 (also known as MS/MS or tandem mass spec) under single ion locked mass mode.
Quantification of the unchanged drug and its metabolites was carried out by integration of the individual chromatographically separated UV peaks and provided the percentage of total peak area.

identified as metabolite of the compound of formula (I-A) (human hepatocytes; human hepatocytes, carboxylic acid metabolite)	Structure (SMILES)	IC50 [1] [µM]	turnover in human hepatocytes (human hepatocytes; 10 μM, 1×10^6 cells/mL, 3 hours)	major metabolic softspot (human hepatocytes; human hepatocytes)	metabolites generated from the incubation (human hepatocytes; human hepatocytes, 10 μM, 3 hours)
	O=C1C=C(c2c(-n3cnnn3)ccc(Cl)c2F)C[C@H]2CC[C@@H](c3ncc(-c4ccnc(CO)c4F)[nH]3)N12 [Compound of formula (I-A), (3S,8aR)-7-(3-Chloro-2-fluoro-6-(1H-tetrazol-1-yl)phenyl)-3-(5-(3-fluoro-2-(hydroxymethyl)pyridin-4-yl)-1H-imidazol-2-yl)-2,3,8,8a-tetrahydroindolizin-5(1H)-one]	> 100	low turnover	(3-fluoropyridin-2-yl) methanol moiety	three oxidative and two glucuronide metabolites
a metabolite in human hepatocytes	O=C(O)c1nccc(-c2cnc([C@@H]3CC[C@@H]4CC(c5c(-n6cnnn6)ccc(Cl)c5F)=CC(=O)N43)[nH]2)c1F [Compound of formula (II-A), 4-(2-((3S,8aR)-7-(3-chloro-2-fluoro-6-(1H-tetrazol-1-yl)phenyl)-5-oxo-1,2,3,5,8,8a-hexahydroindolizin-3-yl)-1H-imidazol-5-yl)-3-fluoropicolinic acid]				
